Here are results for 21 compounds from US6537994B2, “Heterocyclic β3 adrenergic receptor agonists” (Wyeth, priority 2000, dated 2003).

The melting point is the temperature of the solid-liquid transition. Usually EC50 stands for the concentration needed to bring the measured effect to its halfway point. Higher therefore signals a less potent agent.

One series addresses T1, human β3-AR (Homo sapiens, UniProt P13945).
T1 construct: Full length β3 AR clones (402 amino acids) containing the last 6 amino acids of hβ3-AR; expressed in transfected cells; host or cells: CHO cells
The experiment in a line: cAMP accumulation (SPA) in CHO cells transfected with human β3 adrenergic receptor. The note with it: for EC50: CHO cells expressing human β3-AR, cAMP, 30 min incubation, 10^−9 M to 10^−5 M; for IA(β3): maximal response, IA=% activity compound/% activity isoproterenol at 10^−5 M. The series is classed as cell-based. Here is the method:
The ability of compounds of this invention to treat or inhibit disorders related to insulin resistance or hyperglycemia was confirmed with representative compounds of this invention in the following standard pharmacological test procedures, which measured the binding selectivity to the β1, β2, and β3 adrenergic receptors. Binding to the receptors was measured in Chinese Hamster ovary (CHO) cells that were transfected with adrenergic receptors. The following briefly summarizes the procedures used and results obtained.
Cloning of Human β3-AR Genomic DNA: cDNA was constructed by ligating four polymerase chain reaction (PCR) products using the following primers: an ATG-Narl fragment, sense primer 5′-[…]3′ and anti-sense primer 5′[…]3′; a Narl-Accl fragment, 5′[…]3′ as sense and 5′[…]3′ as anti-sense primer; an Accli-Styl fragment, sense primer 5′[…]3′ and anti-sense primer 5′[…]3′ and a Styl-TAG fragment, with sense primer 5′[…]3′ and anti-sense primer 5′[…]3′. The corresponding primer sequences are described in Mantzoros, C. S., et. al., Diabetes 45: 909-914 (1996). The four fragments are ligated into a pUC 18 plasmid (Gibco-BRL) and sequenced. Full length β3 AR clones (402 amino acids) containing the last 6 amino acids of hβ3-AR are prepared with the β3-βARpcDNA3 from ATTC.
Binding Procedure: Clones expressing receptor levels of 70 to 110 fmoles/mg protein were used in the test procedures. CHO cells were grown in 24-well tissue culture plates in Dulbecco's Modified Eagle Media with 10% fetal bovine serum, MEM non-essential amino acids, Penicillin-Streptompycin and Geneticin. On the day of test procedure, growth medium was replaced with preincubation media (Dulbecco's Modified Eagle Media and incubated for 30 minutes at 37° C. Preincubation medium was replaced with 0.2 ml treatment medium containing DMEM media containing 250 μM IBMX (isobutyl-1-methylxantine) plus 1 mM ascorbic acid with test compound dissolved in DMSO. Test compounds were tested over a concentration range of 10^−9 M to 10^−5 M for β3 cells and 10^−8 to 10^−4 M for β1 and β2 transfected cells. Isoproterenol (10^−5 M) was used as an internal standard for comparison of activity. Cells were incubated at 37° C. on a rocker for 30 min with the β3 cells and 15 min for β1 and β2 cells. Incubation was stopped with the addition of 0.2N HCl and neutralized with 2.5N NaOH. The plates, containing the cells and neutralized media, were stored at −20 degrees celsius until ready to test for cAMP using the SPA test kit (Amersham).
Data Analysis and Results: Data collected from the SPA test procedure were analyzed as per cent of the maximal isoproterenol response at 10^−5 M. Activity curves were plotted using the SAS statistical and graphics software.
IA=% activity compound/% activity isoproterenol
Background: cAMP levels reflect the balance of adenylyl cyclase and phosphodiesterase activity.

Structures are written as SMILES. Values joined by “and” are separate entries in the source; they are usually repeats but may differ in a detail not shown here. Equal values may be shown once.

T1 sequence (P13945 whole entry): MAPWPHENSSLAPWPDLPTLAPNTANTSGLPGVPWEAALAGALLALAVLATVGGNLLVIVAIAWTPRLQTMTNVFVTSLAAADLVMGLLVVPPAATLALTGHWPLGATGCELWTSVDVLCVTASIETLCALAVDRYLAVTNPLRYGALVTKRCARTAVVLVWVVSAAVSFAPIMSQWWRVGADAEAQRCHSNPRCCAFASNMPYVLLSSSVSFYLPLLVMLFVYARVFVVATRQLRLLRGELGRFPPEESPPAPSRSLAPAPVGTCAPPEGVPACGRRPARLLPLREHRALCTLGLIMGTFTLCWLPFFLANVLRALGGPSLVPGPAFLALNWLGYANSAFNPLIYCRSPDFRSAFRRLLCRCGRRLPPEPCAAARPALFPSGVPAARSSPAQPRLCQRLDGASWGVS

The compound `O=[N+]([O-])c1cccnc1Nc1ccc(CCNC[C@H](O)COc2ccc(O)cc2)cc1` (hydrate or solvate) [Example 1, 4-((2S)-2-Hydroxy-3-{2-[4-(3-nitro-pyridin-2-ylamino)-phenyl]-ethylamino}-propoxy)-phenol] registered a melting point of 148 to 149 °C.

In the case of `Nc1cccnc1Nc1ccc(CCNC[C@H](O)COc2ccc(O)cc2)cc1` (hydrate or solvate) [Example 2, 4-((2R)-3-{2-[4-(3-Amino-pyridin-2-ylamino)-phenyl]-ethylamino}-2-hydroxy-propoxy)-phenol], the melting point was in the range of 63 to 65 °C.

On to `Oc1ccc(OC[C@@H](O)CNCCc2ccc(-n3cnc4cccnc43)cc2)cc1` (hydrate or solvate) [Example 3, 4-{(2S)-2-Hydroxy-3-[2-(4-imidazo[4,5-b]pyridin-3-yl-phenyl)-ethylamino]-propoxy}-phenol], for which the melting point fell in the range of 49 to 52 °C.

In the case of `CCCCCCNC(=O)Nc1ccc(-c2nc3cccnc3n2-c2ccc(CCNC[C@H](O)COc3ccc(O)cc3)cc2)cc1` (hydrate or solvate) [Example 15, N-hexyl-N′-(4-{3-[4-(2-{[(2S)-2-hydroxy-3-(4-hydroxyphenoxy)propyl]amino}ethyl)phenyl]-3H-imidazo[4,5-b]pyridin-2-yl}phenyl)urea], the melting point was in the range of 110 to 116 °C.

On to `CCCCCCNC(=O)Nc1cccc(-c2nc3cccnc3n2-c2ccc(CCNCC(O)COc3ccc(O)cc3)cc2)c1` (stereo not drawn) (hydrate or solvate) [Example 16, 1-Hexyl-3-{3-[3-(4-{2-[2-hydroxy-3-(4-hydroxy-phenoxy)-propylamino]-ethyl}-phenyl)-3H-imidazo[4,5-b]pyridin-2-yl]-phenyl}-urea], for which the melting point is 93 to 95 °C.

On to `CCCCCCNC(=O)Nc1ccc(CCc2nc3cccnc3n2-c2ccc(CCNC[C@H](O)COc3ccc(O)cc3)cc2)cc1` (hydrate or solvate) [Example 17, 1-Hexyl-3-(4-{2-[3-(4-{2-[(2S)-2-hydroxy-3-(4-hydroxy-phenoxy)-propylamino]-ethyl}-phenyl)-3H-imidazo[4,5-b]pyridin-2-yl]-ethyl}-phenyl)-urea], for which the melting point lay in the range of 90 to 92 °C.

Turning to `Nc1cccnc1Nc1ccc(CCNCC(O)COc2ccc(O)cc2)cc1` (stereo in doubt) [Example 2, 4-((2R)-3-{2-[4-(3-Amino-pyridin-2-ylamino)-phenyl]-ethylamino}-2-hydroxy-propoxy)-phenol], on human β3-AR, the EC50 came to 72 nM and the “IA(β3)” value was 1.01.

For the compound `O=[N+]([O-])c1cccnc1Nc1ccc(CCNC[C@H](O)COc2ccc(O)cc2)cc1` [Example 1, 4-((2S)-2-Hydroxy-3-{2-[4-(3-nitro-pyridin-2-ylamino)-phenyl]-ethylamino}-propoxy)-phenol], on human β3-AR, the concentration for a half-maximal effect (EC50) amounted to 324 nM and the “IA(β3)” value is given as 0.65.

Consider `Oc1ccc(OC[C@@H](O)CNCCc2ccc(-n3cnc4cccnc43)cc2)cc1` [Example 3, 4-{(2S)-2-Hydroxy-3-[2-(4-imidazo[4,5-b]pyridin-3-yl-phenyl)-ethylamino]-propoxy}-phenol], for which, at human β3-AR, the EC50 was 95 nM and the “IA(β3)” value came out at 0.76.

`CCCCCCNC(=O)Nc1cccnc1Nc1ccc(CCNC[C@H](O)COc2ccc(O)cc2)cc1` [Example 4, 1-Hexyl-3-[2-(4-{2-[(2S)-2-hydroxy-3-(4-hydroxy-phenoxy)-propylamino]-ethyl}-phenylamino)-pyridin-3-yl]-urea] showed a melting point of 61 to 64 °C.

`Nc1cccnc1Oc1ccc(CCNC[C@H](O)COc2ccc(O)cc2)cc1` [Example 5, 4-((2S)-3-{2-[4-(3-Amino-pyridin-2-yloxy)-phenyl]-ethylamino}-2-hydroxy-propoxy)-phenol]: on human β3-AR, the EC50 is 20 nM and the “IA(β3)” value is 1.12.

In turn, `O=C(Nc1cccnc1Nc1ccc(CCNC[C@H](O)COc2ccc(O)cc2)cc1)c1ccccc1` [Example 6, N-[2-(4-{2-[(2S)-2-Hydroxy-3-(4-hydroxy-phenoxy)-propylamino]-ethyl}-phenylamino)-pyridin-3-yl]-benzamide] registered a melting point of 97 to 99 °C. In addition, at human β3-AR, the EC50 was 83 nM and the “IA(β3)” value amounted to 0.88.

`C=C(C)n1c(=O)n(-c2ccc(CCNC[C@H](O)COc3ccc(O)cc3)cc2)c2ncccc21` [Example 7, 3-(4-{2-[(2S)-2-Hydroxy-3-(4-hydroxy-phenoxy)-propylamino]-ethyl}-phenyl)-1-isopropenyl-1,3-dihydro-imidazo[4,5-b]pyridin-2-one] displayed a melting point of 62 to 64 °C. Besides, at human β3-AR, the EC50 worked out at 57 nM and the “IA(β3)” value was 1.12.

For `CCc1ccc(-c2nc3cccnc3n2-c2ccc(CCNC[C@H](O)COc3ccc(O)cc3)cc2)cc1` [Example 8, 4-[(2S)-3-(2-{4-[2-(4-Ethyl-phenyl)-imidazo[4,5-b]pyridin-3-yl]-phenyl}-ethylamino)-2-hydroxy-propoxy]-phenol], the melting point lay in the range of 75 to 78 °C. Besides, at human β3-AR, the response was half-maximal at 6 nM (EC50) and the “IA(β3)” value turned out to be 1.03.

Compound `CCCCCc1nc2cccnc2n1-c1ccc(CCNC[C@H](O)COc2ccc(O)cc2)cc1` [Example 9, 4-((2S)-2-Hydroxy-3-{2-[4-(2-pentyl-imidazo[4,5-b]pyridin-3-yl)-phenyl]-ethylaminol}-propoxy)-phenol] gave a melting point of 50 to 52 °C. For the same compound, at human β3-AR, the concentration giving a half-maximal response (EC50) stood at 266 nM and the “IA(β3)” value worked out at 0.74.

In turn, `Oc1ccc(OC[C@@H](O)CNCCc2ccc(-n3c(-c4ccc(C5CCCCC5)cc4)nc4cccnc43)cc2)cc1` [Example 10, 4-[(2S)-3-(2-{4-[2-(4-Cyclohexyl-phenyl)-imidazo[4,5-b]pyridin-3-yl]-phenyl}-ethylamino)-2-hydroxy-propoxy]-phenol] displayed a melting point of 100 to 102 °C. Moreover, on human β3-AR, a half-maximal response (EC50) required 6 nM and the “IA(β3)” value worked out at 0.96.

In the case of `Oc1ccc(OC[C@@H](O)CNCCc2ccc(-n3c(CCC4CCCC4)nc4cccnc43)cc2)cc1` [Example 11, 4-[(2S)-3-(2-{4-[2-(2-Cyclopentyl-ethyl)-imidazo[4,5-b]pyridin-3-yl]-phenyl}-ethylamino)-2-hydroxy-propoxy]-phenol], the melting point lay within 59 to 61 °C. At human β3-AR, the response was half-maximal at 10 nM (EC50) and the “IA(β3)” value was found to be 0.86.

As to `O=c1[nH]c2cccc(OCC(O)CNCCc3ccc(-n4c(CCC5CCCC5)nc5cccnc54)cc3)c2[nH]1` (stereo not drawn) [Example 12, 4-[3-(2-{4-[2-(2-Cyclopentyl-ethyl)-imidazo[4,5-b]pyridin-3-yl]-phenyl}-ethylamino) -2-hydroxy-propoxy]-1,3-dihydro-benzoimidazol-2-one], the melting point lay within 115 to 117 °C. At human β3-AR, the EC50 was 5 nM and 15 nM.

On to `CCCCCc1nc2cccnc2n1-c1ccc(CCNC[C@H](O)COc2cccc3[nH]c(=O)[nH]c23)cc1` [Example 13, 4-((2S)-2-Hydroxy-3-{2-[4-(2-pentyl-imidazo[4,5-b]pyridin-3-yl)-phenyl]-ethylaminol}-propoxy)-1,3-dihydro-benzoimidazol-2-one], for which, on human β3-AR, the EC50 turned out to be 46 nM and the “IA(β3)” value came to 0.087.

For `Cc1ccn(-c2ccc(-c3nc4cccnc4n3-c3ccc(CCNCC(O)COc4ccc(O)cc4)cc3)c(Cl)c2)n1` (stereo not drawn) [Example 14, 4-{3-[2-(4-{2-[2-Chloro-4-(3-methyl-pyrazol-1-yl)-phenyl]-imidazo[4,5-b]pyridin-3-yl}-phenyl)-ethylamino]-2-hydroxy-propoxy}-phenol], the melting point was 87 to 89 °C. Moreover, at human β3-AR, the EC50 turned out to be 54 nM and the “IA(β3)” value came to 0.086.

Regarding `CCCCCCNC(=O)Nc1ccc(-c2nc3cccnc3n2-c2ccc(CCNC[C@H](O)COc3ccc(O)cc3)cc2)cc1` [Example 15, N-hexyl-N′-(4-{3-[4-(2-{[(2S)-2-hydroxy-3-(4-hydroxyphenoxy)propyl]amino}ethyl)phenyl]-3H-imidazo[4,5-b]pyridin-2-yl}phenyl)urea], on human β3-AR, the concentration for a half-maximal effect (EC50) was determined as 70 nM and the “IA(β3)” value is on record as 1.05.
